Data published in PubChem BioAssay (NCI).
Several values for one entry are separate records, joined by “and”; a condition that tells them apart may be missing. Equal values may be shown once.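 Exposure lasted 48 hours, with cells grown in 96-well plates and compounds tested at five concentrations. GI50: concentration for 50% inhibition of growth. TGI: total growth inhibition.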

What was measured:
Assay in all cases: NCI-60 cell line screen, 48 h
[1] = tested on: SK-MEL-5 melanoma
[2] = tested on: OVCAR-4 ovarian
[3] = tested on: RXF 393 renal
[4] = tested on: SK-MEL-28 melanoma
[5] = tested on: SNB-19 CNS
[6] = tested on: HOP-92 NSCLC
[7] = tested on: OVCAR-3 ovarian
[8] = tested on: RPMI-8226 leukemia
[9] = tested on: SF-295 CNS
[10] = tested on: NCI-H522 lung

| SMILES | GI50 [1] | TGI [1] | GI50 [2] | TGI [2] | GI50 [3] [µM] | TGI [3] | GI50 [4] [µM] | TGI [4] [µM] | GI50 [5] [µM] | TGI [5] [µM] | GI50 [6] [µM] | TGI [6] [µM] | GI50 [7] | TGI [7] [µM] | GI50 [8] [µM] | TGI [8] [µM] | GI50 [9] [µM] | TGI [9] [µM] | GI50 [10] [µM] | TGI [10] [µM] |
| --- | --- | --- | --- | --- | --- | --- | --- | --- | --- | --- | --- | --- | --- | --- | --- | --- | --- | --- | --- | --- |
| CC(C)=CCc1c(O)c(C(=O)CC(C)C)c(O)c2c(-c3ccccc3)cc(=O)oc12 | 3.38 µM | 12.3 µM | 9.98 µM | 35.6 µM | 15.8 | > 50 µM | 2.94 | > 50 | 10.3 | > 50 | 1.04 | 4.84 | 4.33 µM | > 50 | 2.68 | 16.6 | 10 | 43.5 | 7.02 | 28.2 |
| O=C1CCC(N2C(=O)c3cccc(NCCOCCOCCNC(=O)c4cc5c(o4)C(=O)c4ccccc4C5=O)c3C2=O)C(=O)N1 (stereo not given) | 0.787 µM | 2.07 µM | 1.29 µM | 2.57 µM | 1.67 | 3.21 µM | 1.92 | 3.9 | 1.55 | 3.52 | 3.27 | 12.5 | 0.295 µM | 1.03 | 2.43 | 7.85 | 1.68 | 3.08 | 1.71 | 4.38 |
| NC(Cc1c[nH]c2cc(F)ccc12)C(=O)O (stereo not given) | 557 µM | 1140 µM | > 2500 µM | > 2500 µM | 1450 | > 2500 µM | 1150 | > 2500 | 1440 | > 2500 | > 2500 | > 2500 | 792 µM | > 2500 | > 2500 | > 2500 | 502 | > 2500 | 773 | 2280 |
| COc1c(Cl)[c]([Hg][O]C(C)=O)c(NCC(C)=O)c(OC)[c]1[Hg][O]C(C)=O | 11.1 µM | 26.1 µM | 20 µM | 79.7 µM | 14.4 | 30.4 µM | 13.3 | 26.2 | 3.53 | 11.2 | 2.28 | 6.8 | 10.2 µM | 21.8 | 15 | 38.8 | 20.2 | 45.2 | 1.37 | 4 |
| COc1cc(/C=C2\Cc3ccccc3C2=O)cc(OC)c1OC |  | > 100 µM |  | > 100 µM |  | > 100 µM |  | > 100 |  | > 100 |  | > 100 |  | > 100 |  | > 100 |  | > 100 |  | > 100 |
| COCC(=O)NC/C=C/c1ccc2ncnc(Nc3ccc(Oc4ccc(C)nc4)c(C)c3)c2c1 | 3.26 µM | 13 µM | 4.83 µM | 31.1 µM | 13.9 | 36.3 µM | 12.9 | 30.6 | 18.4 | > 100 | 6.48 | 36.3 | 10.4 µM | 28 | 8.75 | 36.1 | 12.5 | 38.1 | 3.4 | 25.8 |
| CCOc1ccc(N=Cc2ccc3ccccc3n2)cc1 |  | > 100 µM |  | > 100 µM |  | > 100 µM |  | > 100 |  | > 100 |  | > 100 |  | > 100 |  | > 100 |  | > 100 |  | > 100 |
| CC(C)=CCC/C(C)=C/CC/C(C)=C/C1CCC(=O)C1(C)C (stereo not given) |  | 29.3 µM |  | 66 µM |  | 37.5 µM |  | 54 |  | 65.2 |  | 51.7 |  | 32.5 |  | 42.4 |  | 33 |  | 29 |
| CC(=Nc1ccccc1)C1=C(O)C(Cc2ccc(F)cc2)NC1=O (stereo not given) | 0.472 µM | > 100 µM | 14.4 µM | > 100 µM | 0.339 | 1.74 µM | 2.63 | > 100 | 4.75 | > 100 | 0.327 | > 100 | 0.323 µM | 1.2 | 0.859 | > 100 |  |  | 0.237 | 2.1 |
| Cc1nc(-n2nc(-c3ccccc3)cc2-c2ccccc2)sc1C(=O)/C=C/c1ccc(Cl)cc1 |  | 31 µM |  |  |  | 28.1 µM |  | 33.6 |  |  |  | 43 |  | 35.6 |  | 26.7 |  | 30.5 |  | 25.9 |
| CCCCCN(CCCCC)C(=O)[C@H](CCC(=O)OCc1ccccc1)NC(=O)c1cc2ccccc2[nH]1 |  |  |  | > 100 µM |  | > 100 µM |  | > 100 |  | > 100 |  | > 100 |  | > 100 |  | 7.74 |  | > 100 |  | > 100 |
| O=C(Nc1ccc(N2CCNCC2)cn1)c1[nH]ncc1Nc1ncnc2sccc12 | 1.71 µM | 3.26 µM | 1.69 µM | 3.63 µM | 3.32 | 18.8 µM | 1.95 | 3.83 |  |  | 1.76 | 5.65 | 2.02 µM | 4.38 | 2.32 | 6.71 | 11.9 | 28.9 | 1.87 | 4.36 |
| C[C@@]1(O)CCC[C@H]1n1c(=O)c(C(F)F)cc2cnc(NC3CCN(S(C)(=O)=O)CC3)nc21 | 1.15 µM | 7.91 µM | 1.76 µM | > 100 µM | 1.24 | 2.9 µM | 2.06 | 10.9 | 1.34 | 16.8 | 2.04 | 6.8 |  |  | 1.11 | 8.64 | 1.83 | 16.2 | 2.66 | 15.3 |
| CN(C)C1C(=O)C(C(N)=O)=C(O)C2(O)C(=O)C3=C(O)c4c(O)cccc4C(C)(O)C3CC12 (stereo not given) | 22.4 µM and 56.5 µM | 39.9 µM and > 100 µM | 31 µM and > 100 µM | 75 µM and > 100 µM |  | 87.5 µM and > 100 µM |  | > 100 |  |  |  | > 100 | 44.5 µM and > 100 µM | > 100 |  | > 100 |  |  |  | > 100 |
| C/C=C(\C)C(=O)N1c2ccccc2CC1c1c(C)[nH]c2ccccc12 (stereo not given) |  |  |  | > 100 µM |  | > 100 µM |  | > 100 |  | > 100 |  | 99.4 |  | > 100 |  | > 100 |  | > 100 |  | > 100 |
| CC(C)(C)C1CCC(=O)C(C(O)CC2CC(=O)N(c3ccccc3)C(=O)C2)C1 (stereo not given) |  |  |  | > 100 µM |  | > 100 µM |  | > 100 |  | > 100 |  | > 100 |  | > 100 |  | > 100 |  | > 100 |  | > 100 |
